Test results published in US20200268701A1, “COMPOSITIONS AND METHODS FOR PRODUCING ELEVATED AND SUSTAINED KETOSIS” (University of South Florida, priority 2013, published 2020).
Counter-ions that a name gives are not always drawn.

How the values were obtained:
[1] = Change of body weight in rats during 28 days of ketone supplementation; type: in vivo, Sprague-Dawley rats; settings: daily for 28 days
Protocol: Diets were not restricted for this study. Once a week, animals were fasted for 4 hours prior to intragastric gavage of the appropriate ketone supplement. The four hour food restriction was used to eliminate normal variance in blood glucose and ketone levels due to food consumption. […] Animals were weighed once per week to maintain accurate dosage using the […] Toledo SB 16001 scales. Rats were administered SO, MO, or SM daily for 28 days as described above. Each week the animals were weighed. […] The control animals continued to gain weight throughout the month-long study. In comparison, the ketone supplement treatment groups all gained less weight. […] A key finding of this study is that the SM group was able to limit weight gain in an unexpected way as the amounts of BHB and MCT when combined were much lower than the amounts of those ingredients used in the SO and MO treatment groups. This effect on body weight gain is likely due to appetite suppression caused by the supplements, rather than a reduced intake of the supplement itself, as force feeding controlled for dosing.

[2] = human, in vivo, po
Protocol: All procedures were done in accordance with the University of South Florida Institutional Review Board (IRB) guidelines. BHB salts and MCT oil were given to human subjects as a ketogenic food supplement and blood measurements of BHB and/or glucose were taken at predetermined time points.
To determine the time course of ketosis, the subjects were orally given the test substances of a BHB salt solution (450 mL; 4%, approximately 18 g), an MCT oil (30 mL, approximately 30 g), or a combination of the a BHB salt solution and an MCT oil. Blood concentrations of glucose and BHB were determined utilizing a commercially available glucose/ketone monitoring system (Precision Xtra® blood glucose and ketone meter) at defined time points (0, 15, 30, 60, 120, 240 and 480 minutes following ingestion of the test substances).
The subject was administered a BHB salt solution containing 4% Na^+/K^+ BHB salts in solution, an MCT oil, or a combination of the 4% Na^+/K^+ BHB salts and the MCT oil. At 15, 30, 60, 120, 240 and 480 minutes after administration, blood was drawn. The subject returned on days 2 and 3 for additional supplements, with blood taken as on day 1. Levels of BHB in the blood were determined as described above.

[3] = Blood glucose levels of a fasted 70 kg subject after oral administration; type: in vivo, human; settings: for Blood glucose levels Mean: 70 kg male, mean of 3 days; for Blood glucose levels Day 1 / Blood glucose levels Day 2 / Blood glucose levels Day 3: 70 kg person
Protocol: To determine the time course of ketosis, the subjects were orally given the test substances of a BHB salt solution (450 mL; 4%, approximately 18 g), an MCT oil (30 mL, approximately 30 g), or a combination of the a BHB salt solution and an MCT oil. Blood concentrations of glucose and BHB were determined utilizing a commercially available glucose/ketone monitoring system (Precision Xtra® blood glucose and ketone meter) at defined time points (0, 15, 30, 60, 120, 240 and 480 minutes following ingestion of the test substances). Subject (70 kg) was instructed to fast for three days, and was given a single daily oral administration of either ßHB salts (4% solution containing 11 grams sodium ßHB and 7.1 grams potassium ßHB), MCT oil or ßHB salts+MCT oil at 15, 30, 60, 120, 240 and 480 minutes on 3 consecutive days. At 15, 30, 60, 120, 240 and 480 minutes after administration, blood was drawn. The subject returned on days 2 and 3 for additional supplements, with blood taken as on day 1, as in Example 1. […] Blood glucose levels were determined as described above.

[4] = design: species or system Sprague-Dawley rats; settings: rat, in vivo
From the text: (§1) Subject rats (n=74), 275-325 grams, were randomly assigned to a control group (no supplementation) or to one of three ketone precursor groups: medium chain triglyceride (MCT) oil (MO), mineral (Na^+/K+) salt of β-hydroxybutyrate (βHB) (SO), or SO+MO 1:1 combination (SM). The ketone mineral salt was developed and synthesized by Dr. Patrick Arnold from Prototype Nutrition. Pure pharmaceutical grade MCT oil was purchased from Now Foods (Bloomingdale, Ill.). SM was mixed at a 1:1 ratio.
(§2) Rats were supplemented with medium chain triglyceride (MCT) oil (MO), or a mineral (Na+/K+) salt of β-hydroxybutyrate (βHB) (SO), or SO+MO 1:1 mixture (SM) and force fed a daily at a dose of 5 g/kg body weight on days 1-14, followed by a 10 g/kg dose on days 15-28 rats Supplementation was given between 10 am and […] daily to eliminate variance based on regular eating patterns. Diets were not restricted for this study.
Once a week, animals were fasted for 4 hours prior to intragastric gavage of the appropriate ketone supplement. The four hour food restriction was used to eliminate normal variance in blood glucose and ketone levels due to food consumption. […]

[5] = Blood βHB levels of a fasted 70 kg subject after oral administration; type: in vivo, human; design: unit: mM; settings: for Blood βHB levels Mean: 70 kg male, mean of 3 days; for Blood βHB levels Day 1 / Blood βHB levels Day 2 / Blood βHB levels Day 3: 70 kg person
Protocol: To determine the time course of ketosis, the subjects were orally given the test substances of a BHB salt solution (450 mL; 4%, approximately 18 g), an MCT oil (30 mL, approximately 30 g), or a combination of the a BHB salt solution and an MCT oil. Blood concentrations of glucose and BHB were determined utilizing a commercially available glucose/ketone monitoring system (Precision Xtra® blood glucose and ketone meter) at defined time points (0, 15, 30, 60, 120, 240 and 480 minutes following ingestion of the test substances). Subject (70 kg) was instructed to fast for three days, and was given a single daily oral administration of either ßHB salts (4% solution containing 11 grams sodium ßHB and 7.1 grams potassium ßHB), MCT oil or ßHB salts+MCT oil at 15, 30, 60, 120, 240 and 480 minutes on 3 consecutive days. At 15, 30, 60, 120, 240 and 480 minutes after administration, blood was drawn. The subject returned on days 2 and 3 for additional supplements, with blood taken as on day 1, as in Example 1.

[6] = Blood glucose levels in rats after ketone supplementation; type: in vivo, Sprague-Dawley rats
From the text: as §1, §2
Once a week, animals were fasted for 4 hours prior to intragastric gavage of the appropriate ketone supplement. The four hour food restriction was used to eliminate normal variance in blood glucose and ketone levels due to food consumption. Whole blood samples (10 μL) were acquired from the saphenous vein of the subjects for analysis of glucose and βHB utilizing the commercially available glucose and ketone monitoring system Precision Xtra™ (Abbott Laboratories, Abbott Park, Ill.) at time intervals of 0, 0.5, 1, 4, 8, and 12 hours after ketone precursor supplements were administered, or until βHB returned to baseline. On Day 0 (Week 0) and Day 28 (Week 4), whole blood samples (10 μL) were acquired for analysis of total cholesterol, HDL, and triglycerides for a lipid panel utilizing the commercially available home cholesterol analyzer Cardio Chek™ (Polymer Technology Systems, Inc., Indianapolis, Ind.) at time 0. Animals were weighed once per week to maintain accurate dosage using the Mittler Toledo SB 16001 scales.

CC(O)CC(=O)O (stereo not drawn) [BHB salt (450 mL), β-hydroxybutyrate]
Body weight gain compared to controls (in words) [1]: gained significantly less weight compared to controls | Elevation in BHB levels (in words) [2]: higher elevation in BHB levels than MCT oil alone | Blood glucose levels Mean ([3]; time 0 minutes): 90.00 | Blood glucose levels Mean ([3]; time 30 minutes): 87.00 | Blood glucose levels Mean ([3]; time 60 minutes): 81.00 | Blood glucose levels Mean ([3]; time 120 minutes): 77.33 | Blood glucose levels Mean ([3]; time 240 minutes): 77.33 | Blood glucose levels Mean ([3]; time 480 minutes): 74.67 | Blood glucose levels Day 1 ([3]; time 0 minutes): 100 | Blood glucose levels Day 2 ([3]; time 0 minutes): 90 | Blood glucose levels Day 3 ([3]; time 0 minutes): 80 | Blood glucose levels Day 1 ([3]; time 30 minutes): 95 | Blood glucose levels Day 2 ([3]; time 30 minutes): 95 | Blood glucose levels Day 3 ([3]; time 30 minutes): 71 | Blood glucose levels Day 1 ([3]; time 60 minutes): 85 | Blood glucose levels Day 2 ([3]; time 60 minutes): 90 | Blood glucose levels Day 3 ([3]; time 60 minutes): 68 | Blood glucose levels Day 1 ([3]; time 120 minutes): 82 | Blood glucose levels Day 2 ([3]; time 120 minutes): 85 | Blood glucose levels Day 3 ([3]; time 120 minutes): 65 | Blood glucose levels Day 1 ([3]; time 240 minutes): 80 | Blood glucose levels Day 2 ([3]; time 240 minutes): 84 | Blood glucose levels Day 3 ([3]; time 240 minutes): 68 | Blood glucose levels Day 1 ([3]; time 480 minutes): 76 | Blood glucose levels Day 2 ([3]; time 480 minutes): 80 | Blood glucose levels Day 3 ([3]; time 480 minutes): 68 | Triglyceride levels at week 4 compared with week 0 [4]: mildly elevated | Blood βHB levels Mean ([5]; time 0 minutes): 0.87 | Blood βHB levels Mean ([5]; time 30 minutes): 1.73 | Blood βHB levels Mean ([5]; time 60 minutes): 2.77 | Blood βHB levels Mean ([5]; time 120 minutes): 1.73 | Blood βHB levels Mean ([5]; time 240 minutes): 1.53 | Blood βHB levels Mean ([5]; time 480 minutes): 1.53 | Blood βHB levels Day 1 ([5]; time 0 minutes): 0.2 | Blood βHB levels Day 2 ([5]; time 0 minutes): 0.6 | Blood βHB levels Day 3 ([5]; time 0 minutes): 1.8 | Blood βHB levels Day 1 ([5]; time 30 minutes): 0.7 | Blood βHB levels Day 2 ([5]; time 30 minutes): 1.8 | Blood βHB levels Day 3 ([5]; time 30 minutes): 2.7 | Blood βHB levels Day 1 ([5]; time 60 minutes): 1.1 | Blood βHB levels Day 2 ([5]; time 60 minutes): 2.4 | Blood βHB levels Day 3 ([5]; time 60 minutes): 4.8 | Blood βHB levels Day 1 ([5]; time 120 minutes): 0.3 | Blood βHB levels Day 2 ([5]; time 120 minutes): 1.6 | Blood βHB levels Day 3 ([5]; time 120 minutes): 3.3 | Blood βHB levels Day 1 ([5]; time 240 minutes): 0.4 | Blood βHB levels Day 2 ([5]; time 240 minutes): 1.2 | Blood βHB levels Day 3 ([5]; time 240 minutes): 3 | Blood βHB levels Day 1 ([5]; time 480 minutes): 0.6 | Blood βHB levels Day 2 ([5]; time 480 minutes): 1.6 | Blood βHB levels Day 3 ([5]; time 480 minutes): 2.4 | Blood glucose versus control (in words) ([6]; 5 g/kg, week 0): did not show any significant difference compared to control | Blood glucose versus control (in words) ([6]; 5 g/kg, week 1): began reducing glucose by 8 hours | Blood glucose versus control (in words) ([6]; 10 g/kg, week 2 onward): reduced glucose levels at 30 minutes through 8 hours

medium chain triglyceride (MCT) oil [MCT (30 mL)]
Elevation in BHB levels (in words) [2]: little elevation in BHB levels | Time of peak plasma BHB level after administration [2]: 60 min | Triglyceride levels at week 4 compared with week 0 [4]: little change
